These results are taken from ChEMBL document CHEMBL1201862, “PubChem BioAssay data set” (2004).

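Tested at 5 concentrations; 48 h exposure; 96-well plates; endpoints linearly interpolated, else capped at highest concentration. GI50 marks 50% less growth.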 Activity calls are given as the source filed them. Cut-off read from the data, not from the text of the source: active = GI50 up to about 1.1 µM and inactive = higher.

Assay in all cases: DTP human tumour cell line panel, 48 h
In assay [1] the test system is CCRF-CEM.
In assay [2] the test system is HOP-62.
Assay [3] concerns IGROV-1.
Assay [4] deals with LOX IMVI.
Assay [5] deals with M14.
Assay [6] relates to MCF7.
The test system of assay [7] is MDA-N.
Assay [8] concerns NCI-H23.
The test system of assay [9] is NCI-H460.
Assay [10] deals with NCI/ADR-RES.
For assay [11], the system named is OVCAR-8.
Assay [12] has as its system SF-295.
Assay [13] has as its system SK-MEL-2.
In assay [14] the test system is SR.
For assay [15], the system named is T47D.
Assay [16] has as its system TK-10.
Assay [17] deals with CAKI-1.
The subject of assay [18] is HOP-92.

For orientation: GI50 means the concentration at which growth is held to half of that of the control. On to `COc1ccc(Cn2nc(OCc3ccccc3)c3cc([N+](=O)[O-])ccc32)cc1`, for which the GI50 in [1], in [2], in [3], in assay [4], in assay [5] and in assay [6] was > 100 µM (inactive) in each case. Moreover, the GI50 in [7], in [8], in assay [9], in assay [10], in assay [11] and in assay [12] was > 100 µM (inactive) each time. In addition, the GI50 in assay [13], in [14], in [15] and in [16] was > 100 µM (inactive) in each case.

On to `COC(=O)C1=NN2c3ccccc3C(=O)OCCC2(C)C1` (stereo unspecified), for which the GI50 in assay [17], in assay [1], in [2], in assay [18], in assay [3] and in assay [4] was > 100 µM (inactive) throughout. In addition, the GI50 in [6] is > 100 µM (inactive); in assay [7], > 100 µM (inactive); in assay [8], > 100 µM (inactive); in assay [9], 68.2 µM (inactive); in [10] it was > 100 µM (inactive); in [11] it was > 100 µM (inactive). In addition, the GI50 in assay [12], in [13], in assay [14], in [15] and in [16] was > 100 µM (inactive) throughout.

Turning to `O=C1c2cccnc2C(=O)c2c1nc1ccccc1c2-c1cncc(-c2c3c(nc4ccccc24)C(=O)c2cccnc2C3=O)c1`, the 50% growth inhibitory concentration (GI50) in assay [17] is 0.332 µM (active); in assay [1], 0.198 µM (active); in assay [2] it was 0.281 µM (active); in [3], < 0.0144 µM (active); in assay [4], 0.139 µM (active); in assay [5], 0.115 µM (active). In addition, the concentration for 50% growth inhibition (GI50) is 0.157 µM (active) in assay [6]; 0.399 µM (active) in [7]; 0.343 µM (active) in assay [8]; 0.19 µM (active) in [9]; 0.253 µM (active) in assay [10]; 0.0634 µM (active) in assay [11]. Moreover, the GI50 in assay [12] was 0.614 µM (active); in [13], 0.693 µM (active); in assay [14], < 0.01 µM (active); in [15], 0.439 µM (active); in assay [16] it was 0.458 µM (active).

Regarding `CC(=O)OCC1OC(n2c3c(c(-c4cccc5ccccc45)c(C#N)c2=S)CCCC3)C(OC(C)=O)C(OC(C)=O)C1OC(C)=O` (stereo unspecified), the GI50 in [1] was > 100 µM (inactive); in [2], > 100 µM (inactive); in assay [18] it was 0.112 µM (active); in assay [3], > 100 µM (inactive); in [4], > 100 µM (inactive); in [5], 66.7 µM (inactive). In addition, the GI50 in [6], in assay [7], in assay [8], in [9], in assay [10] and in [11] was > 100 µM (inactive) each time. Besides, the GI50 is > 100 µM (inactive) in assay [12]; 20.7 µM (inactive) in assay [13]; > 100 µM (inactive) in assay [14]; > 100 µM (inactive) in assay [15]; > 100 µM (inactive) in assay [16].

In the case of `Cc1ccc(S(=O)(=O)NC(=O)NC(C(=O)O)C(C)C)cc1` (stereo unspecified), the GI50 in [1], in [2], in [18], in assay [3], in assay [4] and in [5] was > 100 µM (inactive) throughout. Besides, the GI50 in assay [6], in assay [7], in assay [8], in assay [9], in assay [10] and in [11] was > 100 µM (inactive) each time. In addition, the GI50 in [12], in [13], in [14], in [15] and in [16] was > 100 µM (inactive) each time.

For `O=C(O)c1cc(/N=N/c2ccc([As](=O)(O)O)cc2)ccc1O`, the GI50 in assay [17], in [1], in [2], in assay [3], in assay [4] and in assay [5] was > 100 µM (inactive) in each case. Further, the GI50 in assay [6], in [7], in [8], in assay [9], in assay [10] and in assay [11] was > 100 µM (inactive) each time. The GI50 in assay [12], in assay [13], in assay [14], in assay [15] and in assay [16] was > 100 µM (inactive) in each case.

Consider `Fc1ccc(NCn2nc(COc3ccccc3Cl)n(/N=C/c3ccc(-c4ccc(Cl)cc4Cl)o3)c2=S)cc1Cl`, for which the GI50 in assay [17] was 34.4 µM (inactive); in assay [1] it was 25.5 µM (inactive); in assay [2], 52.4 µM (inactive); in [3], 29.2 µM (inactive); in assay [4], 23.9 µM (inactive); in assay [5] it was 28.5 µM (inactive). For the same compound, the GI50 in [6] is 26.7 µM (inactive); in assay [7] it was 38.5 µM (inactive); in assay [8], 27.4 µM (inactive); in [9], 32.7 µM (inactive); in assay [10], 43.5 µM (inactive); in assay [11], 36.1 µM (inactive). The GI50 in [12] is 33 µM (inactive); in assay [13], 25 µM (inactive); in assay [14], 16.6 µM (inactive); in assay [15], 27.7 µM (inactive); in assay [16], 31.8 µM (inactive).

On to `CC(C)=CC[C@]12CCN[C@H]1N(S(=O)(=O)c1ccccc1)c1ccccc12`, for which the GI50 in assay [17] was 20.1 µM (inactive); in assay [1] it was 23.6 µM (inactive); in assay [2], 15.3 µM (inactive); in assay [18], 12.2 µM (inactive); in assay [3], 10.6 µM (inactive); in assay [4] it was 15.9 µM (inactive). The GI50 in assay [6] is 18.2 µM (inactive); in assay [7], 15.2 µM (inactive); in assay [8], > 100 µM (inactive); in assay [9] it was 14.5 µM (inactive); in assay [10], 14.8 µM (inactive); in [11], 16.8 µM (inactive). Also, the GI50 is 14.8 µM (inactive) in assay [12]; 14.2 µM (inactive) in assay [13]; 18.3 µM (inactive) in [14]; 15.2 µM (inactive) in assay [15]; 34.9 µM (inactive) in assay [16].

Regarding `CC1C(=O)CC[C@@]2(C)C(=O)CCCC12O` (stereo partly specified), the GI50 in assay [17], in [2], in [18], in assay [3], in [4] and in assay [5] was > 100 µM (inactive) in each case. Moreover, the GI50 in assay [6], in assay [7], in [8], in assay [9], in assay [10] and in [12] was > 100 µM (inactive) in each case. Besides, the GI50 in assay [13], in assay [14], in assay [15] and in [16] was > 100 µM (inactive) in each case.

As for `CC1=C(C#N)C2C(=C(N)Oc3ccccc32)C(N)=N1` (stereo unspecified), the GI50 in assay [17] is 19.1 µM (inactive); in assay [1] it was 30.1 µM (inactive); in [2], 35.6 µM (inactive); in [3], 25.4 µM (inactive); in [4], 20.1 µM (inactive); in [5], 20.7 µM (inactive). Also, the GI50 is 6.56 µM (inactive) in [6]; 21.8 µM (inactive) in [7]; > 10 µM (inactive) in assay [8]; 19.3 µM (inactive) in [10]; 25.1 µM (inactive) in assay [11]; 26.9 µM (inactive) in assay [12]. Also, the GI50 in assay [13] is 20.1 µM (inactive); in [14], 40.8 µM (inactive); in assay [15], 20.1 µM (inactive); in assay [16], 21.1 µM (inactive).

As for `O=C(Oc1c(Cl)cc(C2(c3cc(Cl)c(OC(=O)c4ccccc4)c(Cl)c3)CCCCC2)cc1Cl)c1ccccc1`, the GI50 is 5.01 µM (inactive) in assay [17]; 8 µM (inactive) in [1]; 12.4 µM (inactive) in assay [2]; 8.45 µM (inactive) in assay [18]; 10.6 µM (inactive) in [3]; 14.2 µM (inactive) in assay [4]. Also, the GI50 was 14.5 µM (inactive) in assay [5]; 11.1 µM (inactive) in assay [6]; 12.7 µM (inactive) in assay [7]; 10.4 µM (inactive) in assay [8]; 6.65 µM (inactive) in assay [9]; 11.6 µM (inactive) in assay [10]. For the same compound, the GI50 in assay [11] is 15.9 µM (inactive); in [12], 13.4 µM (inactive); in assay [13] it was 11.2 µM (inactive); in assay [15] it was 11 µM (inactive); in assay [16] it was 16.7 µM (inactive).

In the case of `COc1cc(/C=C2\N=C(c3ccccc3)N(c3nc4ccc(Sc5ccccc5)cc4[nH]3)C2=O)ccc1O`, the GI50 was 23.9 µM (inactive) in [17]; 6.14 µM (inactive) in assay [1]; 42.7 µM (inactive) in assay [2]; 62.2 µM (inactive) in assay [18]; 37.8 µM (inactive) in assay [3]; 25.5 µM (inactive) in assay [4]. Moreover, the GI50 in [5] is 15.6 µM (inactive); in assay [6] it was 17.5 µM (inactive); in assay [7], 5.13 µM (inactive); in [8] it was 26.8 µM (inactive); in [9], 19.5 µM (inactive); in [10], 18.7 µM (inactive). The GI50 in assay [11] is 27.6 µM (inactive); in assay [12], 27.9 µM (inactive); in [13], 13.5 µM (inactive); in [15], 27 µM (inactive); in [16], 20.7 µM (inactive).
